Measured values as given in ChEMBL document CHEMBL1201862, “PubChem BioAssay data set” (2004).
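Exposure lasted 48 hours, with cells grown in 96-well plates and compounds tested at five concentrations. Here, GI50 denotes the concentration required for 50% inhibition of growth.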 Calls of active or inactive are those of the source. No stated cut-off is given here; in the data, active = GI50 up to about 1.1 µM and inactive = higher.

Legend:
Assay in all cases: growth of human tumour cells (NCI), 48 h
[1] = system: LOX IMVI
[2] = system: A549
[3] = system: SF-268
[4] = system: SK-MEL-5
[5] = system: HOP-92
[6] = system: MOLT-4
[7] = system: SR
[8] = system: OVCAR-8
[9] = system: PC-3
[10] = system: SF-295
[11] = system: SNB-19
[12] = system: MCF7
[13] = system: TK-10
[14] = system: Malme-3M
[15] = system: HCT-15
[16] = system: CCRF-CEM
[17] = system: DU-145
[18] = system: OVCAR-5
[19] = system: UACC-62
[20] = system: NCI-H23
[21] = system: HT-29
[22] = system: MDA-MB-435
[23] = system: NCI-H522
[24] = system: EKVX
[25] = system: UO-31
[26] = system: MDA-MB-231
[27] = system: SK-MEL-28
[28] = system: M14
[29] = system: K562
[30] = system: NCI/ADR-RES
[31] = system: NCI-H460
[32] = system: SW-620
[33] = system: COLO 205
[34] = system: SK-OV-3
[35] = system: 786-0
[36] = system: SF-539
[37] = system: MDA-N
[38] = system: SK-MEL-2
[39] = system: UACC-257
[40] = system: Hs-578T
[41] = system: OVCAR-3
[42] = system: OVCAR-4
[43] = system: SNB-75
[44] = system: A498
[45] = system: HCT-116
[46] = system: SN12C
[47] = system: HCC 2998
[48] = system: U-251
[49] = system: RPMI-8226
[50] = system: ACHN
[51] = system: HL-60
[52] = system: T47D
[53] = system: IGROV-1
[54] = system: CAKI-1
[55] = system: HOP-62
[56] = system: KM12
[57] = system: NCI-H226
[58] = system: RXF 393

With CO[C@]12CC(=O)C3(C(C[C@H]4CC5CCC6=CC(=O)CC[C@]6(OC(C)=O)C5C[C@@]43C)C1)C1C[C@H]3[C@@H]4CCC5=CC(=O)CC[C@]5(OC(C)=O)[C@H]4CC[C@]3(C)C12 (some centres undefined) the GI50 [1] was > 100 µM (inactive), the GI50 [2] was > 100 µM (inactive) and the GI50 [3] was > 100 µM (inactive). For the same molecule, the GI50 [4] was 39.4 µM (inactive), the GI50 [5] was > 100 µM (inactive) and the GI50 [6] was > 100 µM (inactive). The GI50 [7] was > 100 µM (inactive), the GI50 [8] was > 100 µM (inactive) and the GI50 [9] was > 100 µM (inactive). The GI50 [10] was > 100 µM (inactive), the GI50 [11] was > 100 µM (inactive) and the GI50 [12] was > 100 µM (inactive). For the same molecule, the GI50 [13] was > 100 µM (inactive), the GI50 [14] was > 100 µM (inactive) and the GI50 [15] was over 100 µM. The GI50 [16] was > 100 µM (inactive), the GI50 [17] was > 100 µM (inactive) and the GI50 [18] was > 100 µM (inactive). For the same molecule, the GI50 [19] was > 100 µM (inactive), the GI50 [20] was > 100 µM (inactive) and the GI50 [21] was > 100 µM (inactive). For the same molecule, the GI50 [22] was > 100 µM (inactive), the GI50 [23] was > 100 µM (inactive) and the GI50 [24] was > 100 µM (inactive). For the same molecule, the GI50 [25] was > 100 µM (inactive), the GI50 [26] was 27.5 µM (inactive) and the GI50 [27] was > 100 µM (inactive). The GI50 [28] was > 100 µM (inactive), the GI50 [29] was > 100 µM (inactive) and the GI50 [30] was > 100 µM (inactive). For the same molecule, the GI50 [31] was > 100 µM (inactive), the GI50 [32] was > 100 µM (inactive) and the GI50 [33] was 19.7 µM (inactive). For the same molecule, the GI50 [34] was > 100 µM (inactive), the GI50 [35] was > 100 µM (inactive) and the GI50 [36] was > 100 µM (inactive). The GI50 [37] was 58.2 µM (inactive), the GI50 [38] was > 100 µM (inactive) and the GI50 [39] was > 100 µM (inactive). The GI50 [40] was > 100 µM (inactive), the GI50 [41] was > 100 µM (inactive) and the GI50 [42] was > 100 µM (inactive). The GI50 [43] was > 100 µM (inactive), the GI50 [44] was > 100 µM (inactive) and the GI50 [45] was > 100 µM (inactive). The GI50 [46] was > 100 µM (inactive), the GI50 [47] was > 100 µM (inactive) and the GI50 [48] was > 100 µM (inactive). For the same molecule, the GI50 [49] was > 100 µM (inactive), the GI50 [50] was > 100 µM (inactive) and the GI50 [51] was > 100 µM (inactive). For the same molecule, the GI50 [52] was > 100 µM (inactive), the GI50 [53] was > 100 µM (inactive) and the GI50 [54] was > 100 µM (inactive). The GI50 [55] was > 100 µM (inactive).

In the case of COc1ccc(N(CN2C(=O)CCC2C(=O)O)C(C)=O)cc1 (centres undefined), the GI50 [1] is reported as > 100 µM (inactive), the GI50 [2] is reported as > 100 µM (inactive) and the GI50 [3] is reported as > 100 µM (inactive). For the same molecule, the GI50 [4] was > 100 µM (inactive), the GI50 [5] was > 100 µM (inactive) and the GI50 [6] was 65.5 µM (inactive). The GI50 [8] was > 100 µM (inactive), the GI50 [9] was > 100 µM (inactive) and the GI50 [10] was > 100 µM (inactive). The GI50 [11] was > 100 µM (inactive), the GI50 [12] was > 100 µM (inactive) and the GI50 [13] was > 100 µM (inactive). For the same molecule, the GI50 [14] was > 100 µM (inactive), the GI50 [15] was over 100 µM and the GI50 [16] was > 100 µM (inactive). The GI50 [17] was > 100 µM (inactive), the GI50 [18] was > 100 µM (inactive) and the GI50 [19] was > 100 µM (inactive). For the same molecule, the GI50 [20] was > 100 µM (inactive), the GI50 [21] was > 100 µM (inactive) and the GI50 [22] was > 100 µM (inactive). The GI50 [56] was > 100 µM (inactive), the GI50 [23] was > 100 µM (inactive) and the GI50 [24] was > 100 µM (inactive). The GI50 [25] was > 100 µM (inactive), the GI50 [26] was > 100 µM (inactive) and the GI50 [27] was > 100 µM (inactive). For the same molecule, the GI50 [28] was > 100 µM (inactive), the GI50 [29] was > 100 µM (inactive) and the GI50 [30] was > 100 µM (inactive). For the same molecule, the GI50 [31] was > 100 µM (inactive), the GI50 [32] was > 100 µM (inactive) and the GI50 [33] was > 100 µM (inactive). The GI50 [34] was > 100 µM (inactive), the GI50 [35] was > 100 µM (inactive) and the GI50 [36] was > 100 µM (inactive). For the same molecule, the GI50 [37] was > 100 µM (inactive), the GI50 [57] was > 100 µM (inactive) and the GI50 [38] was > 100 µM (inactive). The GI50 [39] was > 100 µM (inactive), the GI50 [40] was > 100 µM (inactive) and the GI50 [41] was > 100 µM (inactive). For the same molecule, the GI50 [42] was > 100 µM (inactive), the GI50 [43] was > 100 µM (inactive) and the GI50 [44] was > 100 µM (inactive). The GI50 [45] was > 100 µM (inactive), the GI50 [46] was > 100 µM (inactive) and the GI50 [47] was > 100 µM (inactive). For the same molecule, the GI50 [48] was > 100 µM (inactive), the GI50 [49] was > 100 µM (inactive) and the GI50 [50] was > 100 µM (inactive). For the same molecule, the GI50 [51] was > 100 µM (inactive), the GI50 [52] was > 100 µM (inactive) and the GI50 [54] was > 100 µM (inactive). For the same molecule, the GI50 [55] was > 100 µM (inactive).

With C#CC(O)/C=C/C(O)CCCC(O)CC#CC(O)C#CCCCCC(O)/C=C/CCCC(=O)CCCCCCCCCCCCCCCC(O)C(O)C#CC(=O)O (centres undefined) the GI50 [1] was 5.37 µM (inactive), the GI50 [2] was > 25 µM (inactive) and the GI50 [3] was > 25 µM (inactive). The GI50 [4] was > 25 µM (inactive), the GI50 [5] was > 25 µM (inactive) and the GI50 [6] was > 25 µM (inactive). The GI50 [7] was > 25 µM (inactive), the GI50 [8] was > 25 µM (inactive) and the GI50 [9] was > 25 µM (inactive). For the same molecule, the GI50 [10] was > 25 µM (inactive), the GI50 [11] was > 25 µM (inactive) and the GI50 [12] was > 25 µM (inactive). The GI50 [13] was > 25 µM (inactive), the GI50 [14] was > 25 µM (inactive) and the GI50 [15] was over 25 µM. For the same molecule, the GI50 [16] was > 25 µM (inactive), the GI50 [17] was > 25 µM (inactive) and the GI50 [18] was > 25 µM (inactive). For the same molecule, the GI50 [19] was > 25 µM (inactive), the GI50 [20] was > 25 µM (inactive) and the GI50 [21] was > 25 µM (inactive). For the same molecule, the GI50 [22] was > 25 µM (inactive), the GI50 [56] was > 25 µM (inactive) and the GI50 [23] was 6.28 µM (inactive). The GI50 [24] was > 25 µM (inactive), the GI50 [25] was > 25 µM (inactive) and the GI50 [26] was > 25 µM (inactive). For the same molecule, the GI50 [27] was > 25 µM (inactive), the GI50 [28] was > 25 µM (inactive) and the GI50 [58] was 9.64 µM (inactive). For the same molecule, the GI50 [29] was > 25 µM (inactive), the GI50 [30] was > 25 µM (inactive) and the GI50 [31] was > 25 µM (inactive). The GI50 [33] was > 25 µM (inactive), the GI50 [34] was > 25 µM (inactive) and the GI50 [35] was > 25 µM (inactive). For the same molecule, the GI50 [37] was > 25 µM (inactive), the GI50 [57] was > 25 µM (inactive) and the GI50 [38] was > 25 µM (inactive). The GI50 [39] was > 25 µM (inactive), the GI50 [40] was > 25 µM (inactive) and the GI50 [42] was > 25 µM (inactive). The GI50 [43] was > 25 µM (inactive), the GI50 [45] was > 25 µM (inactive) and the GI50 [46] was > 25 µM (inactive). For the same molecule, the GI50 [47] was > 25 µM (inactive), the GI50 [48] was > 25 µM (inactive) and the GI50 [49] was > 25 µM (inactive). For the same molecule, the GI50 [50] was > 25 µM (inactive), the GI50 [51] was > 25 µM (inactive) and the GI50 [52] was 14.2 µM (inactive). For the same molecule, the GI50 [53] was 8.55 µM (inactive), the GI50 [54] was > 25 µM (inactive) and the GI50 [55] was > 25 µM (inactive).
